# Test results from ChEMBL document CHEMBL1671626, “In vitro profiling of ceftaroline against a collection of recent bacterial clinical isolates from across the United States” (2008).
# Columns and labels:
# Format in all cases: functional
# [1] = test system: Acinetobacter; assay: Antibacterial activity against imipenem-susceptible Acinetobacter assessed as resistant isolates by CLSI M7-A7 broth microdilution method
# [2] = test system: Staphylococcus aureus; assay: Antibacterial activity against methicillin-resistant Staphylococcus aureus assessed as resistant isolates by CLSI M7-A7 broth microdilution method
# [3] = test system: Haemophilus influenzae; assay: Antibacterial activity against beta lactamase-positive Haemophilus influenzae assessed as susceptible isolates by CLSI M7-A7 broth microdilution method
# [4] = test system: Staphylococcus aureus; assay: Antibacterial activity against methicillin-susceptible Staphylococcus aureus by CLSI M7-A7 broth microdilution method
# [5] = test system: Klebsiella pneumoniae; assay: Antibacterial activity against ceftazidime-susceptible Klebsiella pneumoniae assessed as resistant isolates by CLSI M7-A7 broth microdilution method
# [6] = test system: Enterobacter cloacae; assay: Antibacterial activity against ceftazidime-susceptible Enterobacter cloacae assessed as susceptible isolates by CLSI M7-A7 broth microdilution method
# [7] = test system: Streptococcus pneumoniae; assay: Antibacterial activity against penicillin-susceptible Streptococcus pneumoniae by CLSI M7-A7 broth microdilution method
# [8] = test system: Streptococcus pyogenes; assay: Antibacterial activity against erythromycin-susceptible Streptococcus pyogenes by CLSI M7-A7 broth microdilution method
# [9] = test system: Enterobacteriaceae; assay: Antibacterial activity against ceftazidime-nonsusceptible Enterobacteriaceae assessed as susceptible isolates by CLSI M7-A7 broth microdilution method
# [10] = test system: Staphylococcus aureus; assay: Antibacterial activity against coagulase-negative and oxacillin-resistant Staphylococcus aureus assessed as resistant isolates by CLSI M7-A7 broth microdilution method
# [11] = test system: Enterobacter cloacae; assay: Antibacterial activity against ceftazidime-nonsusceptible Enterobacter cloacae assessed as susceptible isolates by CLSI M7-A7 broth microdilution method
# [12] = test system: Streptococcus pneumoniae; assay: Antibacterial activity against penicillin-resistant Streptococcus pneumoniae by CLSI M7-A7 broth microdilution method
# [13] = test system: Staphylococcus aureus; assay: Antibacterial activity against methicillin-susceptible Staphylococcus aureus assessed as susceptible isolates by CLSI M7-A7 broth microdilution method
# [14] = test system: Escherichia coli; assay: Antibacterial activity against ceftazidime-susceptible Escherichia coli by CLSI M7-A7 broth microdilution method
# [15] = test system: Serratia marcescens; assay: Antibacterial activity against ceftazidime-susceptible Serratia marcescens assessed as resistant isolates by CLSI M7-A7 broth microdilution method
# [16] = test system: Morganella morganii; assay: Antibacterial activity against ceftazidime-susceptible Morganella morganii by CLSI M7-A7 broth microdilution method
# [17] = test system: Streptococcus agalactiae; assay: Antibacterial activity against erythromycin-susceptible Streptococcus agalactiae by CLSI M7-A7 broth microdilution method
# [18] = test system: Proteus mirabilis; assay: Antibacterial activity against ceftazidime-susceptible Proteus mirabilis by CLSI M7-A7 broth microdilution method
# [19] = test system: Streptococcus pyogenes; assay: Antibacterial activity against erythromycin-nonsusceptible Streptococcus pyogenes by CLSI M7-A7 broth microdilution method
# [20] = test system: Enterobacter cloacae; assay: Antibacterial activity against ceftazidime-nonsusceptible Enterobacter cloacae by CLSI M7-A7 broth microdilution method
# [21] = test system: Acinetobacter; assay: Antibacterial activity against imipenem-susceptible Acinetobacter assessed as susceptible isolates by CLSI M7-A7 broth microdilution method
# [22] = test system: Enterobacteriaceae; assay: Antibacterial activity against ceftazidime-nonsusceptible Enterobacteriaceae by CLSI M7-A7 broth microdilution method
# [23] = test system: Staphylococcus aureus; assay: Antibacterial activity against coagulase-negative and oxacillin-resistant Staphylococcus aureus by CLSI M7-A7 broth microdilution method
# [24] = test system: Staphylococcus aureus; assay: Antibacterial activity against coagulase-negative and oxacillin-susceptible Staphylococcus aureus assessed as susceptible isolates by CLSI M7-A7 broth microdilution method
# [25] = test system: Haemophilus influenzae; assay: Antibacterial activity against beta lactamase-negative Haemophilus influenzae assessed as susceptible isolates by CLSI M7-A7 broth microdilution method
# [26] = test system: Streptococcus pneumoniae; assay: Antibacterial activity against penicillin-susceptible Streptococcus pneumoniae assessed as resistant isolates by CLSI M7-A7 broth microdilution method
# [27] = test system: Enterococcus faecium; assay: Antibacterial activity against vancomycin-resistant Enterococcus faecium by CLSI M7-A7 broth microdilution method
# [28] = test system: Acinetobacter; assay: Antibacterial activity against multidrug-resistant Acinetobacter assessed as susceptible isolates by CLSI M7-A7 broth microdilution method
# [29] = test system: Moraxella catarrhalis; assay: Antibacterial activity against beta lactamase-positive Moraxella catarrhalis assessed as susceptible isolates by CLSI M7-A7 broth microdilution method
# [30] = test system: Escherichia coli; assay: Antibacterial activity against ceftazidime-susceptible Escherichia coli assessed as susceptible isolates by CLSI M7-A7 broth microdilution method
# [31] = test system: Citrobacter freundii; assay: Antibacterial activity against ceftazidime-susceptible Citrobacter freundii assessed as susceptible isolates by CLSI M7-A7 broth microdilution method
# [32] = test system: Klebsiella pneumoniae; assay: Antibacterial activity against ceftazidime-susceptible Klebsiella pneumoniae by CLSI M7-A7 broth microdilution method
# [33] = test system: Serratia marcescens; assay: Antibacterial activity against ceftazidime-susceptible Serratia marcescens by CLSI M7-A7 broth microdilution method
# [34] = test system: Acinetobacter; assay: Antibacterial activity against imipenem-susceptible Acinetobacter by CLSI M7-A7 broth microdilution method
# [35] = test system: Streptococcus pneumoniae; assay: Antibacterial activity against penicillin-resistant Streptococcus pneumoniae assessed as susceptible isolates by CLSI M7-A7 broth microdilution method
# [36] = test system: Staphylococcus aureus; assay: Antibacterial activity against methicillin-susceptible Staphylococcus aureus assessed as resistant isolates by CLSI M7-A7 broth microdilution method
# [37] = test system: Streptococcus viridans; assay: Antibacterial activity against penicillin-susceptible Streptococcus viridans by CLSI M7-A7 broth microdilution method
# [38] = test system: Acinetobacter; assay: Antibacterial activity against multidrug-resistant Acinetobacter by CLSI M7-A7 broth microdilution method
# [39] = test system: Streptococcus agalactiae; assay: Antibacterial activity against erythromycin-nonsusceptible Streptococcus agalactiae by CLSI M7-A7 broth microdilution method
# [40] = test system: Providencia sp.; assay: Antibacterial activity against ceftazidime-susceptible Providencia sp. assessed as susceptible isolates by CLSI M7-A7 broth microdilution method
# [41] = test system: Moraxella catarrhalis; assay: Antibacterial activity against beta lactamase-positive Moraxella catarrhalis by CLSI M7-A7 broth microdilution method
# [42] = test system: Morganella morganii; assay: Antibacterial activity against ceftazidime-susceptible Morganella morganii assessed as resistant isolates by CLSI M7-A7 broth microdilution method
# [43] = test system: Escherichia coli; assay: Antibacterial activity against ceftazidime-nonsusceptible Escherichia coli by CLSI M7-A7 broth microdilution method
# [44] = test system: Enterococcus faecalis; assay: Antibacterial activity against vancomycin-resistant Enterococcus faecalis by CLSI M7-A7 broth microdilution method
smiles,measurement,setting,value
C[C@H]1COc2c(N3CCN(C)CC3)c(F)cc3c(=O)c(C(=O)O)cn1c23.C[C@H]1COc2c(N3CCN(C)CC3)c(F)cc3c(=O)c(C(=O)O)cn1c23.O [LEVOFLOXACIN],Activity,[1],36.2%
same,Activity,[2],73.2%
same,Activity,[3],100%
same,MIC50,[4],0.12 µg/mL
same,MIC90,[4],16 µg/mL
same,Activity,[5],1.4%
same,Activity,[6],94%
same,MIC50,[7],0.5 µg/mL
same,MIC90,[7],1 µg/mL
same,MIC50,[8],0.5 µg/mL
same,MIC90,[8],1 µg/mL
same,Activity,[9],41.8%
same,Activity,[10],73.9%
same,Activity,[11],62.9%
same,MIC50,[12],0.5 µg/mL
same,MIC90,[12],1 µg/mL
same,Activity,[13],83.9%
same,MIC50,[14],≤ 0.03 µg/mL
same,MIC90,[14],16 µg/mL
same,Activity,[15],1.7%
same,MIC50,[16],≤ 0.03 µg/mL
same,MIC90,[16],8 µg/mL
same,MIC50,[17],0.5 µg/mL
same,MIC90,[17],1 µg/mL
same,MIC50,[18],0.06 µg/mL
same,MIC90,[18],16 µg/mL
same,MIC50,[19],0.5 µg/mL
same,MIC90,[19],1 µg/mL
same,MIC50,[20],0.12 µg/mL
same,MIC90,[20],1 µg/mL
same,Activity,[21],51.1%
same,MIC50,[22],8 µg/mL
same,MIC90,[22],> 16 µg/mL
same,MIC50,[23],8 µg/mL
same,MIC90,[23],> 16 µg/mL
same,Activity,[24],81.6%
same,Activity,[25],100%
same,Activity,[26],1.5%
same,MIC,[27],> 16 µg/mL
same,MIC50,[27],> 16 µg/mL
same,MIC90,[27],> 16 µg/mL
same,Activity,[28],6.3%
same,Activity,[29],100%
same,Activity,[30],86.4%
same,Activity,[31],98%
same,MIC50,[32],0.06 µg/mL
same,MIC90,[32],0.25 µg/mL
same,MIC50,[33],0.12 µg/mL
same,MIC90,[33],1 µg/mL
same,MIC50,[34],0.5 µg/mL
same,MIC90,[34],> 16 µg/mL
same,Activity,[35],99.3%
same,Activity,[36],15.2%
same,MIC50,[37],1 µg/mL
same,MIC90,[37],1 µg/mL
same,MIC50,[38],16 µg/mL
same,MIC50,[39],1 µg/mL
same,MIC90,[39],1 µg/mL
same,Activity,[40],66.7%
same,MIC,[41],≤ 0.03 µg/mL
same,MIC50,[41],≤ 0.03 µg/mL
same,MIC90,[41],≤ 0.03 µg/mL
same,Activity,[42],20.6%
same,MIC50,[43],> 16 µg/mL
same,MIC90,[43],> 16 µg/mL
same,MIC50,[44],> 16 µg/mL
